The numbers were not newly measured in patent publication US12016851B2, “Modified release pharmaceutical formulations comprising deferiprone” (Chiesi Farmaceutici S.p.A., priority 2022, dated 2024), which cites them from elsewhere.

The conditions of data set [1]: monotherapy; Maggio 2002, Galanello 2006.
The conditions of data set [2]: in vivo.

In the case of `Cc1c(O)c(=O)ccn1C` [Deferiprone, 3-hydroxy-1,2-dimethylpyridin-4-one], the “improving myocardial siderosis and cardiac function” value in data set [1] is “superior to deferoxamine monotherapy”. The half-life – broadly, the time in which the quantity being followed falls by half – in data set [2] was 2 to 3 h.
